# How the values were obtained:
# [1] = tested on: Mycobacterium tuberculosis; assay: Antimycobacterial activity against Mycobacterium tuberculosis H37Ra ITM-M006710 after 48 hr by resazurin dye based microdilution method; type: functional; conditions: H37Ra ITM-M006710, 48 h
# in vitro = conditions: human, HepG2 cells
# Description: Selectivity index, ratio of IC50 for human HepG2 cells to MIC for antimycobacterial activity against Mycobacterium tuberculosis H37Rv
# Mycobacterium avium [2] = assay: Antimycobacterial activity against Mycobacterium avium 330/88 after 21 days; type: functional; conditions: 330/88, 504 h
# Mycobacterium kansasii [3] = assay: Antimycobacterial activity against Mycobacterium kansasii 6509/96 after 7 days; type: functional; conditions: 6509/96, 168 h
# Mycobacterium kansasii [4] = assay: Antimycobacterial activity against Mycobacterium kansasii 235/80 after 14 days; type: functional; conditions: 235/80, 336 h
# Mycobacterium kansasii [5] = assay: Potency index, ratio of p-aminosalicylic acid MIC to compound MIC for antimycobacterial activity against Mycobacterium kansasii 235/80; type: functional
# Mycobacterium kansasii [6] = assay: Antimycobacterial activity against Mycobacterium kansasii 6509/96 after 14 days; type: functional; conditions: 6509/96, 336 h
# HepG2 [7] = assay: Cytostatic activity against human HepG2 cells preincubated for overnight in serum free medium followed by compound wash out and further incubated for 72 hrs in presence of serum by MTT assay; type: ADME, cell-based
# Mycobacterium kansasii [8] = assay: Antimycobacterial activity against Mycobacterium kansasii 6509/96 after 21 days; type: functional; conditions: 6509/96, 504 h
# Mycobacterium kansasii [9] = assay: Antimycobacterial activity against Mycobacterium kansasii 235/80 after 7 days; type: functional; conditions: 235/80, 168 h
# [10] = tested on: Mycobacterium tuberculosis H37Rv; assay: Inhibition of recombinant Mycobacterium tuberculosis H37Rv ICL1 expressed in Escherichia coli BL21 (DE3) cells at 10 uM using (+)-potassium Ds-threo-isocitrate as substrate by glyoxylate phenyl hydrazone formation assay relative to control
# [11] = tested on: Mycobacterium tuberculosis; type: functional; conditions: H37Rv 331/88, 504 h
# [12] = tested on: Mycobacterium tuberculosis; assay: Antimycobacterial activity against XDR Mycobacterium tuberculosis Praha 131 after 21 days; type: functional; conditions: Praha 131, 504 h
# HepG2 [13] = assay: Cytotoxicity against human HepG2 cells assessed as reduction in cell viability after overnight incubation by MTT assay; type: cell-based
# Mycobacterium kansasii [14] = assay: Potency index, ratio of p-aminosalicylic acid MIC to compound MIC for antimycobacterial activity against Mycobacterium kansasii 6509/96; type: functional
# Mycolicibacterium aurum = assay: Antimycobacterial activity against Mycobacterium aurum DSM 43999 after 72 hr by resazurin dye based microdilution method; type: functional; conditions: DSM 43999, 72 h
# [15] = tested on: Mycolicibacterium smegmatis; assay: Antimycobacterial activity against Mycobacterium smegmatis DSM 43465 after 120 hr by resazurin dye based microdilution method; type: functional; conditions: DSM 43465, 120 h
# [16] = tested on: Mycobacterium tuberculosis; type: functional; conditions: H37Rv 331/88, 336 h
# [17] = tested on: Mycobacterium tuberculosis; assay: Antimycobacterial activity against XDR Mycobacterium tuberculosis Praha 131 after 14 days; type: functional; conditions: Praha 131, 336 h
# Mycobacterium avium [18] = assay: Antimycobacterial activity against Mycobacterium avium 330/88 after 14 days; type: functional; conditions: 330/88, 336 h
# Mycobacterium kansasii [19] = assay: Antimycobacterial activity against Mycobacterium kansasii 235/80 after 21 days; type: functional; conditions: 235/80, 504 h
# [20] = tested on: Mycobacterium tuberculosis; type: functional, H37Rv 331/88; set-up: reference not given here
# Mycobacterium avium [21] = assay: Potency index, ratio of p-aminosalicylic acid MIC to compound MIC for antimycobacterial activity against Mycobacterium avium 330/88; type: functional
# Isocitrate lyase = biological target: T1, Isocitrate lyase (Mycobacterium tuberculosis, UniProt P9WKK7); assay: Inhibition of recombinant Mycobacterium tuberculosis ICL expressed in Escherichia coli BL21 (DE3) cells using DL-isocitric acid trisodium salt hydrate as substrate after 30 mins
# T1 sequence (P9WKK7 whole entry): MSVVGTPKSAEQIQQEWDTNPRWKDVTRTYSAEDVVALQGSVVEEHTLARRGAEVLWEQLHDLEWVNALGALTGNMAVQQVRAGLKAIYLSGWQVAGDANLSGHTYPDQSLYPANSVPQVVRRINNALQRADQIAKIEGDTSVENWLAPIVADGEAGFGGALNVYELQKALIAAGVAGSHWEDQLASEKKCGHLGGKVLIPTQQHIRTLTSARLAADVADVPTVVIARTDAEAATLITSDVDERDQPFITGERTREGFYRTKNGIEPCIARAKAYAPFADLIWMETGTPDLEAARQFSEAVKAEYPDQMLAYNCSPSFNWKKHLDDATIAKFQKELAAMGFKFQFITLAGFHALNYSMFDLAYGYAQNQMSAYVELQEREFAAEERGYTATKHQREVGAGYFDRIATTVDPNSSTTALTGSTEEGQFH
SMILES,MIC [1],selectivity ratio (in vitro),MIC (Mycobacterium avium [2]) [µM],MIC (Mycobacterium kansasii [3]) [µM],MIC (Mycobacterium kansasii [4]) [µM],Ratio (Mycobacterium kansasii [5]),MIC (Mycobacterium kansasii [6]) [µM],IC50 (HepG2 [7]) [µM],MIC (Mycobacterium kansasii [8]) [µM],MIC (Mycobacterium kansasii [9]) [µM],inhibition [10] [%],MIC [11] [µM],IC50 (HepG2 [13]) [µM],Ratio (Mycobacterium kansasii [14]),MIC (Mycolicibacterium aurum),MIC [15],MIC [16] [µM],MIC (Mycobacterium avium [18]) [µM],MIC (Mycobacterium kansasii [19]) [µM],Ratio [20],also measured
O=C(NC1CCCCC1)Oc1ccc(Cl)cc1C(=O)Nc1ccc(C(F)(F)F)cc1,≤ 0.88 µM,> 125,8,2,4,>250,4,0.75,4,4,14,1,> 125,>250,≤ 0.88 µM,≤ 0.88 µM,1,8,8,>125,MIC [12]: 1 µM; MIC [17]: 0.5 µM
O=C(NCCc1ccccc1)Oc1ccc(Cl)cc1C(=O)Nc1ccc(C(F)(F)F)cc1,0.84 to 1.69 µM,> 125,8,2,4,>250,4,1,4,4,11,1,> 125,>250,≤ 0.84 µM,≤ 0.84 µM,≤ 0.5,8,8,>125,MIC [12]: 2 µM; MIC [17]: 2 µM
O=C(NC12CC3CC(CC(C3)C1)C2)Oc1ccc(Cl)cc1C(=O)Nc1ccc(C(F)(F)F)cc1,2 µM,> 125,4,4,4,>250,4,4.85,4,4,15,1,> 125,>250,≤ 0.79 µM,4 µM,≤ 0.5,4,4,>125,Ratio (Mycobacterium avium [21]): >31; MIC [12]: 1 µM; MIC [17]: 1 µM
O=C(Nc1ccccc1)Oc1ccc(Cl)cc1C(=O)Nc1ccc(C(F)(F)F)cc1,≤ 0.9 µM,9.8 to 19.6,8,2,4,>250,4,2.45,4,4,13,1,9.8,>250,≤ 0.9 µM,≤ 0.9 µM,≤ 0.5,8,4,>125,MIC [12]: 1 µM; MIC [17]: 1 µM
COC(=O)/C=C/C(=O)c1ccc(OC)cc1,–,–,–,–,–,–,–,–,–,–,–,–,–,–,–,–,–,–,–,–,IC50 (Isocitrate lyase): 30.9 µM
O=C(NC12CC3CC(CC(C3)C1)C2)Oc1ccc(Cl)cc1C(=O)Nc1ccc(Cl)cc1,3.12 µg/mL,1.5,16,8,16,>250,16,8.15,16,8,11,16,24,>250,3.91 µg/mL,3.91 µg/mL,16,16,16,>125,–
O=C(NC1CCCCC1)Oc1ccc(Cl)cc1C(=O)Nc1ccc(F)cc1,3.12 µg/mL,2.7 to 5.3,32,16,32,>250,16,8.6,32,16,18,8,21.2,>250,1.56 µg/mL,3.91 µg/mL,4,32,32,>125,–

# Reference: ChEMBL document CHEMBL4406824, “Phenolic N-monosubstituted carbamates: Antitubercular and toxicity evaluation of multi-targeting compounds” (Eur J Med Chem, 2019)
